Values belong to the compound of their own block, whether it stands above or below them.
Experiments:
[1] = target: T1, Serine/threonine-protein kinase TAO2 (Homo sapiens) (UniProt Q9UL54); assay: Selectivity interaction (Kinase panel (Z-LYTE Assay)) EUB0001632a TAOK2; conditions: at 10 µM
T1 sequence (whole entry): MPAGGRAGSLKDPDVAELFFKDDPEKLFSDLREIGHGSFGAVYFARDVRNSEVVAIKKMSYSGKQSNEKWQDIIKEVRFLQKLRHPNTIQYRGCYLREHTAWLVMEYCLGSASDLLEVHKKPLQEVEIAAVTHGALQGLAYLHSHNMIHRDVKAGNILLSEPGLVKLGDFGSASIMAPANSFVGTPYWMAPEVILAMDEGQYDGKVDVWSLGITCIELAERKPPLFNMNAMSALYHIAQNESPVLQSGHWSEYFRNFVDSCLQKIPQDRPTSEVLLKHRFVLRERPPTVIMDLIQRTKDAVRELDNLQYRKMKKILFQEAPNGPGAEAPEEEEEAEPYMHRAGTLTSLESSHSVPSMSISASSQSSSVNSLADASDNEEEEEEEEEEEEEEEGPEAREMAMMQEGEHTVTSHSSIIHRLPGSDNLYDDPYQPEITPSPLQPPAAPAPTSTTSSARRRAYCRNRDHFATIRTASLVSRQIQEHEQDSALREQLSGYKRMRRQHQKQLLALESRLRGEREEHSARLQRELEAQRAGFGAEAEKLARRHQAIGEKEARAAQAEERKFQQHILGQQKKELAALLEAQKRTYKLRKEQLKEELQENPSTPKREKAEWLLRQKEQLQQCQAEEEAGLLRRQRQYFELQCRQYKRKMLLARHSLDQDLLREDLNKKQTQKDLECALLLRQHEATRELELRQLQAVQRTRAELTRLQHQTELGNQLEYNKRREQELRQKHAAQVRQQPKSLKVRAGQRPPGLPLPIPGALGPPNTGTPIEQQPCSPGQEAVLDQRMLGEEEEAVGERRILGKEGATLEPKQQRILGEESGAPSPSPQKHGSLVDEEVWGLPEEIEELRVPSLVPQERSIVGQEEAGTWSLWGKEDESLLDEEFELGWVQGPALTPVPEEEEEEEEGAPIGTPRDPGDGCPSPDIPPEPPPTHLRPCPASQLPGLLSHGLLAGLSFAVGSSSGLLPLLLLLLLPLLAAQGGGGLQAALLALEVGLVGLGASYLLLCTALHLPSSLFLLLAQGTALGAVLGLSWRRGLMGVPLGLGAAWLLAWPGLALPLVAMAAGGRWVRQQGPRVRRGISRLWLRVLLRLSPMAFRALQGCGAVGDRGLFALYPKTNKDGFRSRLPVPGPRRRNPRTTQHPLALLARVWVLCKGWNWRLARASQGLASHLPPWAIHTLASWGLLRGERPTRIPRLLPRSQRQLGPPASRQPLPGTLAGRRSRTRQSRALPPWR

[2] = target: CDK18/Cyclin Y (Homo sapiens) (UniProt Q07002+Q8ND76); assay: Selectivity interaction (Kinase panel (Z-LYTE Assay)) EUB0001632a CDK18; format: protein-complex assay; conditions: at 10 µM
[3] = target: T2, Phosphatidylinositol 3-kinase C2 domain-containing subunit gamma (Homo sapiens) (UniProt O75747); assay: Selectivity interaction (KinomeScan (DiscoverX)) EUB0000092b PIK3C2G; conditions: at 10 µM
T2 sequence (whole entry): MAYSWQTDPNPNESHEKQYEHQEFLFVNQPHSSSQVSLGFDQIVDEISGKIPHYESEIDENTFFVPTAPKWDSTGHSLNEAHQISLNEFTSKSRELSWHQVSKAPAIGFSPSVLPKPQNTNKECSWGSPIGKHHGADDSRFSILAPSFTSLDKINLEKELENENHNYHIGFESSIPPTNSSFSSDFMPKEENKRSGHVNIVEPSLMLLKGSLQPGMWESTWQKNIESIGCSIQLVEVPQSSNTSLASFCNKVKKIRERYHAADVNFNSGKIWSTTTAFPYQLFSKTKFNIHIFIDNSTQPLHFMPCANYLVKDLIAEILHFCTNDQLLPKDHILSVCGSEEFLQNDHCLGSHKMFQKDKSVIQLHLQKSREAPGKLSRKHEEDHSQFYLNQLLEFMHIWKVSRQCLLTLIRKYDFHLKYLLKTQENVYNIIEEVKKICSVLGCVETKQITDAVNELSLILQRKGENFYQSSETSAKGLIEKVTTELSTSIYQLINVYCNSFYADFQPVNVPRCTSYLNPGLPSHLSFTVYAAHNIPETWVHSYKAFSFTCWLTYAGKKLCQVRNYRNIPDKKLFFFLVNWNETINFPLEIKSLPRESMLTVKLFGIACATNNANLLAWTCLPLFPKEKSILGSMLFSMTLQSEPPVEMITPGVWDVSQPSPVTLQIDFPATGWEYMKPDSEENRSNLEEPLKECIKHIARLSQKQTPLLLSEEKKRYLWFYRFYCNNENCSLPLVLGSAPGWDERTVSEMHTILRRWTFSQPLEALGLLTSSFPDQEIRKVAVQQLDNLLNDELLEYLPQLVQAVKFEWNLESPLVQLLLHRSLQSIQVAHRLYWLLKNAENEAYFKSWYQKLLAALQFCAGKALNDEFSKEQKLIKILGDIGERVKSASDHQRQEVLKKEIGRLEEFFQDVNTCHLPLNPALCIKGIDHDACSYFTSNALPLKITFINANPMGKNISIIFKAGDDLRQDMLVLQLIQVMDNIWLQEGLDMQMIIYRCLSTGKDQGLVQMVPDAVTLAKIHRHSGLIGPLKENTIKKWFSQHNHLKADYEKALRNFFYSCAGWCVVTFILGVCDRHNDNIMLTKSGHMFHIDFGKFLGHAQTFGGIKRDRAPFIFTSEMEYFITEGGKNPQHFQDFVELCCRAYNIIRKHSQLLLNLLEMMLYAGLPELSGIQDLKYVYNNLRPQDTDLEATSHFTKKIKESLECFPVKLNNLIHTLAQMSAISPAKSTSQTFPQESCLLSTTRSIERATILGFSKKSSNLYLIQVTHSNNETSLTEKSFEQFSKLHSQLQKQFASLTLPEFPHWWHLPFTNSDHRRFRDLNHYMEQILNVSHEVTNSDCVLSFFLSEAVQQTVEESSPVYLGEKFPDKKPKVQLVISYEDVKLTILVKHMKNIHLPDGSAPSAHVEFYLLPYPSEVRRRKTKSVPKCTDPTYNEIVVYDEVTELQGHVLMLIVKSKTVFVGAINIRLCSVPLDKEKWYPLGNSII

[4] = target: Phosphatidylinositol 4-kinase beta (Homo sapiens, UniProt Q9UBF8); assay: Selectivity interaction (KinomeScan (DiscoverX)) EUB0000045b PI4KB
[5] = target: Calcium/calmodulin-dependent protein kinase type 1 (Homo sapiens) (UniProt Q14012); assay: Selectivity interaction (KinomeScan (DiscoverX)) EUB0000618a CAMK1; conditions: at 10 µM
[6] = target: Casein kinase I isoform gamma-1 (Homo sapiens) (UniProt Q9HCP0); assay: Selectivity interaction (KinomeScan (DiscoverX)) EUB0000607a CSNK1G1; conditions: at 10 µM
Casein kinase I isoform gamma-1 (Homo sapiens), sequence (Q9HCP0 whole entry, looked up, canonical isoform): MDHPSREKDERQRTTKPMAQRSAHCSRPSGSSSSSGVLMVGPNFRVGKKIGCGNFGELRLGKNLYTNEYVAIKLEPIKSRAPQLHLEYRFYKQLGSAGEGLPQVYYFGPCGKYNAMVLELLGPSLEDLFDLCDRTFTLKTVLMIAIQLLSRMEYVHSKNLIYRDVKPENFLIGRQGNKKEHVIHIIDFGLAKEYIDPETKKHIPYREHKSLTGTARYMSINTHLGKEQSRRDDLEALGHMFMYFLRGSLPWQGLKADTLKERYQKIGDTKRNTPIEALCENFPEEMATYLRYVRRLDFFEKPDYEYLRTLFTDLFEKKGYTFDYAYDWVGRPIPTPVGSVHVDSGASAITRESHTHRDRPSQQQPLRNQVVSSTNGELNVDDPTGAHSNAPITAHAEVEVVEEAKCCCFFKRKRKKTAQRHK

Phosphatidylinositol 4-kinase beta, sequence (Q9UBF8 2-816 limits assumed): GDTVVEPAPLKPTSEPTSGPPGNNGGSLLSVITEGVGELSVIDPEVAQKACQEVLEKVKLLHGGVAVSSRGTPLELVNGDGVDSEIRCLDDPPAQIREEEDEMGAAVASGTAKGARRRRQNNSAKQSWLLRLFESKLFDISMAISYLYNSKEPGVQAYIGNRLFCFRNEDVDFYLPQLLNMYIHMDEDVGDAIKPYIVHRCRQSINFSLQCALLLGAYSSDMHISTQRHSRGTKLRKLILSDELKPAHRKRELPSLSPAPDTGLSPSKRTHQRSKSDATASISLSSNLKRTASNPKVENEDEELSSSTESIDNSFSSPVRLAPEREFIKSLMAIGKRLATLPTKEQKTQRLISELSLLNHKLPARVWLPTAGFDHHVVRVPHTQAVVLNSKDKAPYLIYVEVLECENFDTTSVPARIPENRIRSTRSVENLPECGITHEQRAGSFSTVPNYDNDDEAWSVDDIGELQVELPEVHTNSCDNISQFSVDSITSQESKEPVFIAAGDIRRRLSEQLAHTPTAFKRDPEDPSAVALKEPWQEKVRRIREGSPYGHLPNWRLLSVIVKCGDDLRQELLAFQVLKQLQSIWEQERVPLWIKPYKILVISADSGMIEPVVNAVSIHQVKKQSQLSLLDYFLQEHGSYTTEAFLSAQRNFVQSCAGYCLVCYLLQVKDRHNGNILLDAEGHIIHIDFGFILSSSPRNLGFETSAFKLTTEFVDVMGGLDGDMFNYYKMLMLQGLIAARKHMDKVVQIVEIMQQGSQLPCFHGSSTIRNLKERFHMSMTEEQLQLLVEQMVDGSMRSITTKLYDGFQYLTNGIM
Calcium/calmodulin-dependent protein kinase type 1 (Homo sapiens), sequence (Q14012 whole entry, looked up, canonical isoform): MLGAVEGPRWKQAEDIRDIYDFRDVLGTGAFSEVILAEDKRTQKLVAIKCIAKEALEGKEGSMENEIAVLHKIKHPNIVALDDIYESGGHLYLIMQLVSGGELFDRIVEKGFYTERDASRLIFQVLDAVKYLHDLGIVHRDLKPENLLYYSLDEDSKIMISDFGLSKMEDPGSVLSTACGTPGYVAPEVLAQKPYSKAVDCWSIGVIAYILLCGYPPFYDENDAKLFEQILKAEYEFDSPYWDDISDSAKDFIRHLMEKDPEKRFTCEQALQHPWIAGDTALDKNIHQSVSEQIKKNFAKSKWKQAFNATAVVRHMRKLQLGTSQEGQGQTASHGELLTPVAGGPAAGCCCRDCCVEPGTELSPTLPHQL

% of control [1]: 41.6%
% of control [2]: 1.58%
SMILES: Cn1cc(-n2cnc3c(NCc4nc5cc(Cl)c(Cl)cc5[nH]4)nc(N4CCOCC4)nc32)cn1

SMILES: CCC(=O)N1CCN(c2ccc(-n3c(=O)ccc4cnc5ccc(-c6cnc7ccccc7c6)cc5c43)cc2C(F)(F)F)CC1
% of control [3]: 11%

SMILES: C=CC(=O)Nc1cc(-n2c(=O)ccc3cnc4ccc(-c5ccc(NS(C)(=O)=O)cc5)cc4c32)ccc1C
% of control ([4]; at 1 µM): 79%
% of control ([4]; at 10 µM): 20%

SMILES: O[C@H]1CC[C@H](Nc2ncc3nc(Nc4c(F)cc(F)cc4F)n([C@H]4CCOC4)c3n2)CC1
% of control [5]: 100%

SMILES: CNC(=O)Nc1ccc(-c2nc(N3CC4CCC(C3)O4)c3cnn(C4CCC5(CC4)OCCO5)c3n2)cc1
% of control [6]: 54%

From ChEMBL document CHEMBL5465560, “Selectivity Literature for EUbOPEN Chemogenomic Library” (2024)
